# Assay results from patent US20120040008A1, “PHARMACEUTICAL COMPOSITIONS OF METABOTROPIC GLUTAMATE 5 RECEPTOR (MGLU5) ANTAGONISTS” (priority 2010, published 2012).
# What was measured:
# Type in all cases: physicochemical
# log D at pH 7.4 = assay: log D at pH 7.4
# [1] = aqueous solubility of the free base, pH-dependent; details: aqueous medium
# BCS classification = details: because of pH dependent solubility in physiological range
compound,measurement,setting,value
"Cc1nc(C#Cc2ccnc(Cl)c2)c(C)n1-c1ccc(F)cc1 [2-Chloro-4-[1-(4-fluoro-phenyl)-2,5-dimethyl-1H-imidazol-4-ylethynyl]-pyridine]",logD,log D at pH 7.4,> 3
same,solubility,"[1]; aqueous buffer, alkaline conditions, pH 7",0.3 µg/mL
same,solubility,"[1]; simulated gastric fluid, acidic conditions, pH 1",3200 µg/mL
same,BCS classification,BCS classification,BCS class 2
